# According to patent US11331327B2, “Antibacterial use of halogenated salicylanilides” (UNION therapeutics A/S, priority 2014, dated 2022):
# Like-named read-outs stand apart in the source and are kept apart here.
# Test system: S. aureus clinical isolates and S. aureus ATCC 29213
# Assay: MIC assay according to CLSI criteria, Example 2, S. aureus strains
# Assay type: cell-based, Staphylococcus aureus
# Details: Staphylococcus aureus, read-out: MIC
# Experimental: Strains were conserved in Luria Bertani (LB) Broth (S. aureus) or Brain Heart Infusion (BHI) (S. pyogenes) supplemented with glycerol 15% (v/v) at −80° C., and reactivated by isolation on LB (S. aureus) or BHI (S. pyogenes) agar plates. Strains were cultivated in Mueller Hinton (MH) Broth-cation adjusted (S. aureus) or BHI (S. pyogenes). All strains were cultivated aerobically (microaerobically for S. pyogenes strains) at 37° C.
# Bacterial cultures were stopped in their exponential growth phase and plates were inoculated with the approximate concentration of 5×10^5 cells per well. Plates were incubated at 37° C. for 18 hours (S. aureus) or 24 hours (S. pyogenes).
smiles,measurement,setting,value
CC(=O)O[C@H]1C[C@@]2(C)[C@@H](C[C@@H](O)[C@H]3[C@@]4(C)CC[C@@H](O)[C@@H](C)[C@@H]4CC[C@@]32C)/C1=C(\CCC=C(C)C)C(=O)O [Fusidic acid],MIC,"ATCC 29213 / MRSA, strain MRSA 15",> 16 µg/mL
same,MIC,"ATCC 29213 / MRSA, strain MRSA 16",0.25 µg/mL
same,MIC,"ATCC 29213 / MRSA, strain MRSA 17",4 µg/mL
same,MIC,"ATCC 29213 / MRSA, strain MRSA 18",0.25 µg/mL
same,MIC,"ATCC 29213 / MRSA, strain MRSA 19",0.125 µg/mL
same,MIC,"ATCC 29213 / MRSA, strain MRSA 20",0.125 µg/mL
same,MIC,"ATCC 29213 / MRSA, strain MRSA 21",0.125 µg/mL
same,MIC,"ATCC 29213 / MRSA, strain MRSA 22",> 16 µg/mL
same,MIC,"ATCC 29213 / MRSA, strain MRSA 23",0.25 µg/mL
same,MIC,"ATCC 29213 / MRSA, strain MRSA 24",0.25 µg/mL
same,MIC,"ATCC 29213 / MRSA, strain MRSA 25",16 µg/mL
same,MIC,"ATCC 29213 / MRSA, strain MRSA 26",0.5 µg/mL
same,MIC,"ATCC 29213 / MRSA, strain MRSA 27",0.25 µg/mL
same,MIC,"ATCC 29213 / MRSA, strain MRSA 27b",8 µg/mL
same,MIC,"ATCC 29213 / MRSA, strain MRSA 28",0.06 µg/mL
same,MIC,"ATCC 29213 / MRSA, strain MRSA 29",4 µg/mL
same,MIC,"ATCC 29213 / MRSA, strain MRSA 30",0.125 µg/mL
same,MIC,"ATCC 29213 / MRSA, strain MRSA 31",0.25 µg/mL
same,MIC,"ATCC 29213 / MRSA, strain MRSA 32",0.5 µg/mL
same,MIC,"ATCC 29213 / MRSA, strain MRSA 33",0.5 µg/mL
same,MIC,"ATCC 29213 / MRSA, strain MRSA 34",0.25 µg/mL
same,MIC,"ATCC 29213 / MRSA, strain MRSA 35",16 µg/mL
same,MIC,"ATCC 29213 / MRSA, strain MRSA 36",8 µg/mL
same,MIC,"ATCC 29213 / MRSA, strain MRSA 37",0.5 µg/mL
same,MIC,"ATCC 29213 / MRSA, strain MRSA 38",8 µg/mL
same,MIC,"ATCC 29213 / MRSA, strain MRSA 39",8 µg/mL
same,MIC,"ATCC 29213 / MRSA, strain MRSA 40",0.125 µg/mL
same,MIC,"ATCC 29213 / MRSA, strain MRSA 41",> 16 µg/mL
same,MIC,"ATCC 29213 / MRSA, strain MRSA 42",0.25 µg/mL
same,MIC,"ATCC 29213 / MRSA, strain MRSA 43",0.125 µg/mL
same,MIC,"ATCC 29213 / MRSA, strain MRSA 44",4 µg/mL
same,MIC,"ATCC 29213 / MRSA, strain MRSA 45",0.06 µg/mL
same,MIC,"ATCC 29213 / MRSA, strain MRSA 46",0.06 µg/mL
same,MIC,"ATCC 29213 / MRSA, strain MRSA 47",0.06 µg/mL
same,MIC,"ATCC 29213 / MRSA, strain MRSA 48",2 µg/mL
same,MIC,"ATCC 29213 / MRSA, strain MRSA 49",0.25 µg/mL
same,MIC,"ATCC 29213 / MRSA, strain MRSA 50",0.03 µg/mL
same,MIC,"ATCC 29213 / MRSA, strain MRSA 51",0.13 µg/mL
same,MIC,"ATCC 29213 / MRSA, strain MRSA 52",0.06 µg/mL
same,MIC,"ATCC 29213 / MRSA, strain MRSA 53",0.25 µg/mL
same,MIC,"ATCC 29213 / MRSA, strain MRSA 54",0.125 µg/mL
same,MIC,"ATCC 29213 / MRSA, strain MRSA 55",4 µg/mL
same,MIC,"ATCC 29213 / MRSA, strain MRSA 56",0.06 µg/mL
same,MIC,"ATCC 29213 / MRSA, strain MRSA 57",0.125 µg/mL
same,MIC,"ATCC 29213 / MRSA, strain MRSA 58",4 µg/mL
same,MIC,"ATCC 29213 / MRSA, strain MRSA 59",0.06 µg/mL
same,MIC,"ATCC 29213 / MRSA, strain MRSA 60",8 µg/mL
same,MIC,"ATCC 29213 / MRSA, strain MRSA 61",0.06 µg/mL
same,MIC,"ATCC 29213 / MRSA, strain MRSA 62",0.06 µg/mL
same,MIC,"ATCC 29213 / MRSA, strain MRSA 63",0.125 µg/mL
same,MIC,"ATCC 29213 / MRSA, strain MRSA 64",0.25 µg/mL
same,MIC,"ATCC 29213 / MRSA, strain MRSA 65",0.06 µg/mL
same,MIC,"ATCC 29213 / MRSA, strain MRSA 66",0.06 µg/mL
same,MIC,"ATCC 29213 / MRSA, strain MRSA 67",0.25 µg/mL
same,MIC,"ATCC 29213 / MRSA, strain MRSA 68",0.125 µg/mL
same,MIC,"ATCC 29213 / MRSA, strain MRSA 69",4 µg/mL
same,MIC,"ATCC 29213 / MRSA, strain MRSA 70",8 µg/mL
same,MIC,"ATCC 29213 / MRSA, strain MRSA 71",0.06 µg/mL
same,MIC,"ATCC 29213 / MRSA, strain MRSA 72",16 µg/mL
same,MIC,"ATCC 29213 / MRSA, strain MRSA 73",0.25 µg/mL
same,MIC,"ATCC 29213 / MRSA, strain MRSA 74",0.25 µg/mL
same,MIC,"ATCC 29213 / MRSA, strain MRSA 75",0.5 µg/mL
same,MIC,"ATCC 29213 / MRSA, strain MRSA 76",0.25 µg/mL
same,MIC,"ATCC 29213 / MRSA, strain MRSA 77",16 µg/mL
same,MIC,"ATCC 29213 / MRSA, strain MRSA 78",0.125 µg/mL
same,MIC,"ATCC 29213 / MRSA, strain MRSA 79",0.5 µg/mL
same,MIC,"ATCC 29213 / MRSA, strain MRSA 80",0.125 µg/mL
same,MIC,"ATCC 29213 / MRSA, strain MRSA 81",0.25 µg/mL
same,MIC,"ATCC 29213 / MRSA, strain MRSA 82",8 µg/mL
same,MIC,"ATCC 29213 / MRSA, strain MRSA 83",0.06 µg/mL
same,MIC,"ATCC 29213 / MRSA, strain MRSA 84",8 µg/mL
same,MIC,"ATCC 29213 / MRSA, strain MRSA 85",4 µg/mL
same,MIC,"ATCC 29213 / MRSA, strain MRSA 86",> 16 µg/mL
same,MIC,"ATCC 29213 / MRSA, strain MRSA 87",0.125 µg/mL
same,MIC,"ATCC 29213 / MRSA, strain MRSA 88",0.06 µg/mL
same,MIC,"ATCC 29213 / MRSA, strain MRSA 89",0.06 µg/mL
same,MIC,"ATCC 29213 / MRSA, strain MRSA 90",16 µg/mL
same,MIC,"ATCC 29213 / MRSA, strain MRSA 91",0.25 µg/mL
same,MIC,"ATCC 29213 / MRSA, strain MRSA 92",8 µg/mL
same,MIC,"ATCC 29213 / MRSA, strain MRSA 93",0.02 µg/mL
same,MIC,"ATCC 29213 / MRSA, strain MRSA 94",0.125 µg/mL
same,MIC,"ATCC 29213 / MRSA, strain MRSA 95",8 µg/mL
same,MIC,"ATCC 29213 / MRSA, strain MRSA 96",0.125 µg/mL
same,MIC,"ATCC 29213 / MRSA, strain MRSA 97",8 µg/mL
same,MIC,"ATCC 29213 / MRSA, strain MRSA 98",0.06 µg/mL
same,MIC,"ATCC 29213 / MRSA, strain MRSA 99",0.125 µg/mL
same,MIC,"ATCC 29213 / MRSA, strain MRSA 100",0.125 µg/mL
same,MIC,"ATCC 29213 / MRSA, strain MRSA 101",8 µg/mL
same,MIC,"ATCC 29213 / MRSA, strain MRSA 102",0.06 µg/mL
same,MIC,"ATCC 29213 / MRSA, strain MRSA 103",8 µg/mL
same,MIC,"ATCC 29213 / MRSA, strain MRSA 104",0.25 µg/mL
same,MIC,"ATCC 29213 / MRSA, strain MRSA 105",0.125 µg/mL
same,MIC,"ATCC 29213 / MRSA, strain MRSA 106",0.125 µg/mL
same,MIC,"ATCC 29213 / MRSA, strain MRSA 107",0.25 µg/mL
same,MIC,"ATCC 29213 / MRSA, strain MRSA 108",4 µg/mL
same,MIC,"ATCC 29213 / MRSA, strain MRSA 109",0.25 µg/mL
same,MIC,"ATCC 29213 / MRSA, strain MRSA 110",0.06 µg/mL
same,MIC,"ATCC 29213 / MRSA, strain MRSA 111",8 µg/mL
same,MIC,"ATCC 29213 / MRSA, strain MRSA 112",0.06 µg/mL
same,MIC,"ATCC 29213 / MRSA, strain MRSA 113",0.125 µg/mL
same,MIC,"ATCC 29213 / MSSA, strain MSSA 01",4 µg/mL
same,MIC,"ATCC 29213 / MSSA, strain MSSA 02",4 µg/mL
same,MIC,"ATCC 29213 / NEWMAN, strain Newman",0.25 µg/mL
